Results taken from patent US20230158057A1, “COMPOSITIONS AND METHODS FOR THE TREATMENT OF PAIN” (Duke University, priority 2020, published 2023).

Legend:
[1] = test system: mice with LLC bone cancer pain (BCP); experiment: Syngeneic bone cancer pain (BCP) model, i.t. treatment; assay type: in vivo, mouse
Experimental: Mouse pain models: The chemotherapy-induced peripheral neuropathy (CIPN) model of chronic neuropathic pain was established as we have done previously, using 8-10-week-old CD-1 (strain #022, Charles River) mice injected with paclitaxel (2 mg/kg i.p.) every other day, with 4 injections total. The chronic constriction injury (CCI) model of neuropathic pain was also produced using 8-10-week-old CD-1 under isoflurane anesthesia. Briefly, the right sciatic nerve was exposed above the hip and two ligatures (7-0 Prolene) were placed around the nerve 1 mm apart located proximal to the trifurcation. Ligatures were loosely tied until a subtle flick of the ipsilateral hind limb was observed. CD-1 mice were also used to establish the SNI model, which was generated by tightly ligating the tibial and common peroneal nerves followed by transection and removal of a ˜3 mm portion of the nerve. The sural nerve was left intact and contact or stretching of this nerve was avoided . To establish the syngeneic bone cancer pain (BCP) model, 8-10-week-old C57BL/6J mice (strain #000664, Jackson Labs) were utilized, as the Lewis lung carcinoma cell line LLC1 (LL/2; ATCC CRL-1642) was originally generated in C57BL/6J mice. Mice were anesthetized with isoflurane and the left leg was shaved, disinfected with 10% povidone-iodine, and a 1 cm superficial incision was made to expose the patellar ligament. A 25-gauge needle was inserted at the intercondylar notch of the left femur into the femoral cavity, followed by needle replacement with a 10 μl Hamilton syringe microinjector containing a 2 μl suspension of LLC cells (2×10^5 cells) followed by a 2 μl gelatin sponge solution to enable closure of the injection site. All mice were housed and monitored in accordance with AAALAC standards and Duke IACUC guidelines that pertained to each model.
Reflexive-based sensory testing in mice: All behavioral testing in mice was performed in a specialized humidity- and light-controlled mouse behavior facility maintained at 21-24° C., with testing conducted between the hours of 8:00-16:00. Mice were habituated to the testing environment for at least 2 days prior to baseline testing. All tests were performed by an experimenter who was blinded to experimental conditions, including genotypes and drug treatment. For multi-day experiments using STING agonists, mice were tested in the same room at approximately the same time each day. To measure mechanical sensitivity, mice were confined to individual chambers with non-transparent borders on an elevated mesh rack, preventing mice from visualizing or interacting with one another during the testing period. […] We determined the 50% paw withdrawal threshold using the up-down method. […]

[2] = test system: tumor-bearing femora; experiment: In vivo X-ray radiography of bone destruction, LLC model; set-up: species or system mouse; details: for bone destruction score: LLC model, twice i.p.
Excerpt: In vivo X-ray radiography. Osteolytic bone destruction was continuously evaluated by radiography using the MultiFocus by Faxitron system (Faxitron Bioptics LLC, Tucson, Ariz.). Radiographs of tumor-bearing femora were rated for bone destruction on a 0-5 score scale based on previous study: 0 for normal bone at baseline without tumor inoculation; 1 for one to three radiolucent lesions indicative of bone destruction compared to baseline; 2 for increased number of lesions (three to six lesions) and loss of medullary bone; 3 for loss of medullary bone and erosion of cortical bone; 4 for full-thickness unicortical bone loss; 5 for full-thickness bicortical bone loss and displaced skeletal fracture. All radiographic image quantifications were completed by an experimenter who was blinded to the experimental conditions.

[3] = test system: bone marrow-derived macrophages (BMDM); experiment: In vitro osteoclastogenesis from bone marrow-derived macrophages (BMDM), TRAP staining; assay type: cell-based, mouse; details: 30 μM, WT vs STING^gt/gt or Ifnar1^−/−
Experimental: In vitro induction of osteoclastogenesis and TRAP staining. For in vitro drug treatment, the RAW 264.7 cells were incubated with 35 ng/ml RANKL for six days. Isolated bone marrow cells were cultured overnight in α-MEM media containing 10% fetal bovine serum and 1% antibiotic-antimycotic solution. The suspended cells were collected and incubated with 20 ng/ml MCSF for 3 days to obtain bone marrow-derived macrophage (BMDM). The attached cells were further activated by 35 ng/ml RANKL and 20 ng/ml MCSF. Drug treatment was performed in tandem with RANKL. Culture medium and co-cultured reagents were changed every 3 days. After 6 or 7 days of incubation, the cells were fixed by 4% PFA and stained with warm TRAP staining solution (TRAP kit, Sigma-Aldrich, SLBW4002) for 10-30 min at 37° C.

[4] = test system: naïve mice; experiment: Conditioned place preference (CPP) assay in naïve mice; details: i.t., morphine 2 nmol, DMXAA or ADU-S100 35 nmol
Experimental: All mice underwent 3 d of preconditioning habituation in a temperature- and humidity-controlled room under low-light conditions between 08:00-16:00 in a two compartment CPP chamber (Med Associates Inc.). The two compartments differed by both visual and tactile cues. On the 4th day, animal behavior was video-recorded using a webcam connected to a laptop computer, and animal movement was automatically tracked for 15 minutes using the ANY-Maze software (Stoelting). […] On the conditioning day(s) (day 5 for single trial; day 5-7 for repeated trials), two pairing sessions were performed, with vehicle pairing in the AM session and drug treatment (e.g., vehicle or drug) in the PM session, separated by 4 h. In the AM session, mice always received vehicle (10 μl saline, delivered via i.t. injection under isoflurane anesthesia) and were immediately placed in their preferred CPP chamber for 2 h. […] 24 h after the completion of the pairing experiments, mice were placed in the CPP test box with access to both chambers and behavior was recorded for 15 minutes and analyzed using the ANY-Maze software for chamber preference. CPP score was calculated as the inverse of the time spent in the preferred chamber according to: [post-preference (sec)—pre-preference (sec)]. Vehicle served as a negative control for these experiments, while morphine (three trials/naïve mice) or clonidine (single trial/ongoing pain) served as positive controls.

Row | Structure (SMILES) | cold allodynia [1] | tumor burden [1] | bone destruction score [2] | osteoclast formation from BMDM [3] | conditioned place preference, repeated pairing [4] | bone destruction in Batf3^−/− mice ([2]; 20 mg/kg i.p. d3 and d7) | bone destruction score, WT and Rag1^−/− ([2]; 20 mg/kg i.p. d3 and d7) | bone destruction score, WT vs STING^gt/gt ([2]; 20 mg/kg i.p. d3 and d7) | bone destruction score, WT vs Ifnar1^−/− ([2]; d11 and d15)
1 | Nc1ncnc2c1ncn2[C@@H]1O[C@@H]2COP(=O)([S-])O[C@@H]3[C@H](O)[C@@H](COP([O-])(=S)O[C@H]2[C@H]1O)O[C@H]3n1cnc2c(N)ncnc21.[Na+].[Na+] (stereo partly drawn) [ADU-S100, (2′-5′)-[P(R)]-5′-O-[(R)-hydroxymercaptophosphinyl]-P-thioadenylyl-adenosine cyclic dinucleotide] | suppressed cold allodynia | tumor burden was unaffected | reduced the bone destruction score at d11 and d15 | could significantly inhibit osteoclast formation from BMDM from WT mice but not from STING^gt/gt or Ifnar1^−/− mice | neither DMXAA nor ADU-S100 could induce place preference |  |  |  | 
2 | Cc1ccc2c(=O)c3cccc(CC(=O)O)c3oc2c1C [DMXAA, 2-(5,6-dimethyl-9-oxo-9H-xanthen-4-yl)acetic acid] | suppressed cold allodynia | tumor burden was unaffected | decreased the bone destruction score on d8, d11 and d15 | could significantly inhibit osteoclast formation from BMDM from WT mice but not from STING^gt/gt or Ifnar1^−/− mice | neither DMXAA nor ADU-S100 could induce place preference | reduced bone destruction on d8 and d11 but not d15 in Batf3^−/− mice | improvement in the bone destruction score in both WT and Rag1^−/− mice at d11, but not at d15 | reduction in the bone destruction score in DMXAA-treated WT mice at d11 and d15 after tumor inoculation, and this effect was abolished in STING^gt/gt mice | significantly reduced the bone destruction score without changing overall body weight in WT mice, but this effect was abolished in Ifnar1^−/− mice
